The record followed here is ChEMBL document CHEMBL5532677, “From Hit to Lead: Structure-Based Optimization of Novel Selective Inhibitors of Receptor-Interacting Protein Kinase 1 (RIPK1) for the Treatment of Inflammatory Diseases” (J Med Chem, 2024).

Active and inactive are the calls of the source. The rule behind the calls is not given here.

The subject of assay [1] is Mus musculus. In words: Protection against TNF-alpha induced C57BL/6 mouse model of systemic inflammatory response syndrome assessed as increase in survival rate at 10 mg/kg, po pretreated for 15 mins followed by TNF-alpha administration and measured for 6 hrs (reference value: 10%). The assay is classed as functional. The note with it: C57BL/6, 6.25 h, time 375 min.
The test system of assay [2] is Mus musculus. In words: Anti-inflammatory activity in BALB/c mouse model of IMQ-induced psoriasis assessed as reduction in skin scaling by measuring reduction in PASI score at 100 mg administered topically as 1% ointment measured daily for 7 days by H and E staining based analysis. The assay is classed as functional, organism-based. The following applies: route top, time 7.0 day.

For assay [3], the system named is Mus musculus. In words: Protection against TNF-alpha induced C57BL/6 mouse model of systemic inflammatory response syndrome assessed as reduction in temperature loss at 10 mg/kg, po pretreated for 15 mins followed by TNF-alpha administration and measured for 6 hrs. The assay is classed as functional, organism-based. The following applies: time 375.0 min.
The test system of assay [4] is Mus musculus. The assay can be described thus: Protection against TNF-alpha induced C57BL/6 mouse model of systemic inflammatory response syndrome assessed as reduction in IL-1beta level at 10 mg/kg, po pretreated for 15 mins followed by TNF-alpha administration and measured for 6 hrs by ELISA. The assay is classed as functional, organism-based. The following applies: time 375.0 min.

For assay [5], the system named is Mus musculus. The assay can be described thus: Anti-inflammatory activity in BALB/c mouse model of IMQ-induced psoriasis assessed as reduction in skin thickening at 100 mg administered topically as 1% ointment measured daily for 7 days by H and E staining based analysis. The assay is classed as functional, organism-based. The note with it: route top, time 7.0 day.

In assay [6] the test system is Mus musculus. The assay can be described thus: Protection against TNF-alpha induced C57BL/6 mouse model of systemic inflammatory response syndrome assessed as reduction in IL-6 level at 10 mg/kg, po pretreated for 15 mins followed by TNF-alpha administration and measured for 6 hrs by ELISA. In kind it is functional, organism-based. The following applies: time 375.0 min. On the technique in general: ELISA stands for enzyme-linked immunosorbent assay.

In assay [7] the test system is Mus musculus. The assay can be described thus: Anti-inflammatory activity in BALB/c mouse model of IMQ-induced psoriasis assessed as improvement in erythema at 100 mg administered topically as 0.005% ointment measured daily for 7 days by H and E staining based analysis. The following applies: route top, time 7.0 day. The assay is classed as functional, organism-based.

Assay [8] has as its system Mus musculus. In words: Anti-inflammatory activity in BALB/c mouse model of IMQ-induced psoriasis assessed as reduction in PASI score at 100 mg administered topically as 0.005% ointment measured daily for 7 days by H and E staining based analysis. The note with it: route top, time 7.0 day. The assay is classed as functional, organism-based.
Assay [9] relates to Mus musculus. The assay can be described thus: Anti-inflammatory activity in BALB/c mouse model of IMQ-induced psoriasis assessed as improvement in skin thickening at 100 mg administered topically as 0.005% ointment measured daily for 7 days by H and E staining based analysis. In kind it is functional, organism-based. The note with it: route top, time 7.0 day.

For `CN1C(=O)[C@@H](NC(=O)c2n[nH]c(Cc3ccccc3)n2)COc2ccccc21` [GSK2982772], the survival at 10 mg/kg in [1] was found to be 70%. For the same compound, the outcome in assay [2], in [3], in assay [4], in [5] and in [6] was Active.
Consider `C=C1/C(=C\C=C2/CCC[C@]3(C)[C@@H]([C@H](C)/C=C/[C@@H](O)C4CC4)CC[C@@H]23)C[C@@H](O)C[C@@H]1O`, for which the result in assay [7] and in [9] was inactive. In addition, the result in assay [8] was Active.
